Tests used:
[1] = tested on: P. viticola cytochrome b gene F129 and L129 alleles; test: ARMS/Scorpion F129L SNP detection assay (Ct of allele selective primers on plasmid DNA templates); design: species or system Plasmopara viticola
Experimental: In all ARMS/Scorpion F129L SNP detection assays AmpliTaq Gold enzyme (Applied Biosystems) is included in the reaction mixes at 1 unit/25 ul reaction. The reaction mix also contains 1× buffer (10 mM Tris-HCl (pH8.3), 50 mM KCl, 3.5 mM MgCl2, 0.01% gelatine) and 100 uM dNTP's (Amersham Pharmacia Biotech). Amplifications are performed in an ABI 7700 instrument for continuous fluorescence monitoring. The cycling conditions comprise a preliminary cycle of 95° C. for 10 minutes, followed by 50 cycles of 95° C. for 15 seconds and 60° C. for 45 seconds. Fluorescence is monitored during the annealing/extension stage throughout all cycles.
The ARMS primers are validated for use in such analyses by using plasmid DNA, at various concentrations as template. This is performed in order to check the specificity and sensitivity of the primer designs. Partial wild type cytochrome b gene sequence and the corresponding tract containing the F129L mutation amplified from two P. viticola samples has been cloned into the TA pCR2.1 vector (Invitrogen) as described previously in example 11. 150 ul of the bacterial culture, from the 10 transformants from each cloning event picked for Qiagen Biorobot plasmid DNA Preparations (Qiazen) (see example 11), was saved prior to carrying out these preparations and stored at 4° C. Following sequence analysis wild type and mutant plasmid DNA samples that contained no sequence differences from the consensus sequence were noted. The bacterial culture from which these wild type and mutant plasmid DNA sequences originated was picked for plasmid DNA maxipreps (Qiagen) following the manufacturers protocol. The resulting plasmid DNA was quantified and diluted to a concentration of 1 ug/ul (2×10^11 molecules/ul) using sterile double distilled H2O.
The wild type and mutant cyt b plasmid DNA constructs were diluted further to a concentration of 10 pg/ul (or 2×10^6 molecules/ul) in double distilled H2O and used as template to validate the specificity of the ARMS primers. […]

Plasmopara viticola = test: in planta dose response bioassay with azoxystrobin on vine seedlings (EC50, EC95); format: in vivo; settings: for EC95: vine seedlings, azoxystrobin rates in ppm (Table 31)
Experimental: The in planta dose response bioassay was performed on 10 to 14 days old vine seedlings grown in 1.5″ pots. Six rates of azoxystrobin were chosen from preparatory tests, as the most suitable for showing any shifts in sensitivity to azoxystrobin in the dose response bioassay (Table 31).
The azoxystrobin preparation used for all the tests was P53, a technical grade powder with a purity of >97% azoxystrobin. This was kept consistent across all the tests to eliminate any variation caused by differences in chemical purity or physical state. Five seedlings were used per azoxystrobin rate per sample, and 10 seedlings were used for the no azoxystrobin control (sprayed with de-ionised water only).
The chemical was sprayed, with a Devilbiss spray gun at 10 psi, to maximum retention onto the adaxial surface of the 2nd true leaf (test leaf) of each seedling, with care being taken to continuously swirl the solution in the spray gun to prevent local fluctuations in azoxystrobin concentration: The seedlings were then carefully placed in a growth room (Day: 24° C., 60% RH, 4-5000 lux; Night: 17° C., 95% RH; Day length: 16 hours) for 24 hours.
After this time each test leaf was inoculated with the samples I112 and I116b. Both samples had passed through 1 cycle of subculture on 3″ vines since being removed from low temperature storage (FIG. 14). The inoculum from each sample, obtained from the 3″ vines, was diluted to 5,000 sporangia per ml using a dry haemocytometer (Improved Neubayer, depth 0.1 mm, 1/400 mm^2, Hawksley Crystallite, BS 748).
The samples were inoculated, with a Devilbiss spray gun at 10 psi, to maximum retention onto the abaxial surface of the test leaf of each seedling, with the suspension being swirled frequently in the spray gun to keep sporangia from accumulating at the bottom. The test seedlings were incubated in an ambient room for twenty-four hours. The seedlings were then randomised and placed in a growth room (Day: 24° C., 60% RH, 4-5000 lux; Night: 17° C., 95% RH; Day length: 16 hours) for 6 days, before being returned to the ambient room for a further 24 hours to stimulate sporulation.
The seedlings were assessed directly after their removal from the ambient room for the second time. Disease assessment was based on the percentage area of the leaf covered by sporulating lesions and discolouration, and recorded in 5% increments. […] The data was then analysed using the statistical program AGSTAT.

Pythium aphanidermatum = test: Azoxystrobin sensitivity of P. aphanidermatum isolates on treated perennial ryegrass turf (percent infected turf area); format: in vivo
Experimental: To enable an assessment of axoxystrobin (strobilurin) resistance of the above isolates, perennial ryegrass (Lolium perenne L.) was grown in 4×4 inch square plastic pots containing sandy soil. Agsorb absorbent clay (extra fine red) was used to anchor the seeds and provide a high level of moisture around the seed to aid germination. The pots were watered using a fog nozzle and covered with paper to reduce evaporation. A fog nozzle was used 3-5 times a day to water the turf pots. When seedlings emerged, the paper cover was removed from the pots to prevent etiolation and watering was reduced to twice daily using a fan nozzle. The pots were maintained for 12-16 days in a glass-house (17-32° C.; 14 h photoperiod) prior to treatment. During this time, the turf was cut twice with electric Black and Decker hand-held clippers.
Pythium aphanidermatum cultures of the isolates summarized in FIG. 1 were maintained on potato dextrose agar (PDA) amended with streptomycin sulfate at 0.05 g/L. Organically grown rye grains (50 g) were hydrated overnight with 40 ml deionized water placed in 250 ml plastic (polyvinyl-chloride) flasks. The flasks were autoclaved twice on successive days for 45 minutes each time. After the berries cooled, ten 1×1 cm agar plugs of P. aphanidermatum were added to each flask. Flasks containing infected rye-berries were incubated in a growth chamber (26° C.; 14 h photoperiod) for seven days to allow the fungi to colonize the rye grains. The fungal-colonized rye grains were then used to inoculate the turf; by placing four berries on the center surface of each pot.
Azoxystrobin treatments were applied in an automated spray cabinet using a flat fan nozzle (8004E) positioned 18 inches over the turf with a spray volume of 3 US gal/1000 sq.ft. To prevent carry over from treatment to treatment, applications were made starting with the lowest concentration and ending with the highest concentration. The spray nozzle was washed once with acetone and twice with deionized water (100 ml/rinse) between treatments. Turf was sprayed with Heritage® (azoxystrobin) at rates of 0.4, 0.133, 0.044, 0.015, 0.005 and 0 oz.Heritage/1000 sq.ft. Following application, the turf was allowed to dry and was transferred to a growth chamber (25-28° C.; 14 h photoperiod) overnight.
Turf was inoculated with fungal-colonized rye-berries one day after application as previously described. All treatments were then randomized and placed in a dew chamber (25-28° C.; 14 h photoperiod) for four days. The turf was moved to a growth room 24 h prior to disease assessment. The percent of Pythium-infected turf area in each pot was assessed five days after inoculation With the exception of isolate 99-150, all the isolates of P. aphanidermatum were sensitive to azoxystrobin (Table1). […] This is the first report of resistance to azoxystrobin of an isolate of the plant pathogenic fungus P. aphanidermatum.
The sensitivity of the resistant isolate 99-150 and sensitive isolate P32R was then confirmed by testing in two separate experiments using rates up to nine times higher than the recommended commercial rate of Heritage® (azoxystrobin): 3.6, 1.2, 0.4, 0.133, 0.044, 0.015, 0.005 and 0 oz/1000 sq.ft.

Row | Compound | Mut Ct ([1]; mutant (L129) plasmid template, 2×10^6 molecules/ul) | NTC amplification ([1]; no template (water only) control) | Wt Ct ([1]; wild type (F129) plasmid template, 2×10^6 molecules/ul) | EC95 (Plasmopara viticola; P. viticola K2075 (sensitive baseline isolate)) | EC95 (Plasmopara viticola; P. viticola isolate 00I112) | EC95 (Plasmopara viticola; P. viticola isolate 00I116B) | sensitivity to azoxystrobin in the in planta dose response bioassay (Plasmopara viticola; P. viticola sample I112, compared with the sensitive baseline isolate) | sensitivity to azoxystrobin in the in planta dose response bioassay (Plasmopara viticola; P. viticola sample I116B, compared with the sensitive baseline isolate) | sensitivity of isolate to azoxystrobin (percent of Pythium-infected turf area) (Pythium aphanidermatum; P. aphanidermatum isolate 99-150, Heritage 0.005-0.4 oz/1000 sq.ft on turf, assessed five days after inoculation) | sensitivity of isolates to azoxystrobin (percent of Pythium-infected turf area) (Pythium aphanidermatum; all P. aphanidermatum isolates except 99-150, Heritage 0.005-0.4 oz/1000 sq.ft on turf, assessed five days after inoculation) | response of isolate to azoxystrobin (percentage of infected turf) (Pythium aphanidermatum; resistant isolate 99-150, rates up to nine times the recommended commercial rate of Heritage (3.6 oz/1000 sq.ft)) | ED80 values of the sensitive isolates (Pythium aphanidermatum; sensitive P. aphanidermatum isolates, compared with the established baseline distribution) | percentage of infected turf (Pythium aphanidermatum; sensitive isolate P32R, highest rate of Heritage (3.6 oz/1000 sq.ft))
1 | Pv129S (DNA GTCCCCAAGGCAAAACATAACCCAT; chemistry not given here) | 17.22 | None | 17.0 |  |  |  |  |  |  |  |  |  | 
2 | CO/C=C(/C(=O)OC)c1ccccc1Oc1cc(Oc2ccccc2C#N)ncn1 [azoxystrobin] |  |  |  | 0.51 | 11.75 | 2.84 | reduced sensitivity | reduced sensitivity | resistant | sensitive | did not respond | within the range of ED80 values of the baseline distribution | reduced dramatically

Reference: patent publication US20050014144A1, “Methods” (priority 2001, published 2005)
